Measured values from PMC10045663, “Synthesis, In Vitro Biological Evaluation of Antiproliferative and Neuroprotective Effects and In Silico Studies of Novel 16E-Arylidene-5α,6α-epoxyepiandrosterone Derivatives” (Biomedicines, 2023).
Entries after “also recorded” stand apart in the source; their conditions may differ.

Tests used:
[1] = test system: T47-D cells (breast cancer); parameters: method as in PMID 23635011; conditions: MTT assay, read-out: IC50 against T47-D cells; cited from earlier work
N27 cells [2] = assay: N27 cell viability after 24 h (MTT), substance alone; format: cell-based, rat; conditions: for effect on N27 cell viability: 10 µM alone; for fold-increase in cell viability compared to 10 µM of the respective compound / fold-increase in cell viability compared to the control: 50 µM alone
Experimental: The immortalized rat mesencephalic dopaminergic cell line (N27 cells; a kind gift from Dr. Yoon-Seong Kim, Burnett School of Biomedical Sciences, University of Central Florida) was grown in Roswell Park Memorial Institute (RPMI) 1640 medium (Sigma-Aldrich) containing 2 g/L sodium bicarbonate, 10% fetal bovine serum (FBS; Millipore), and 1 mL/L of penicillin/streptomycin (GIBCO) in a humidified atmosphere of 5% CO2 at 37 °C. Cells were plated at a density of 0.31 × 10^5 cells per cm^2 in 96-well culture plates. […] To assess cell viability, MTT reduction was performed as previously described (Section 2.3) with some modifications. Briefly, after 24 h of cell treatments, 0.5 mg/mL of MTT was added to cells for 4 h at 37 °C. Then, the resultant precipitate was dissolved in 10% SDS and quantified at a wavelength of 570 nm.

[3] = test system: NHDF cells (normal human dermal fibroblasts); assay: MTT cell proliferation assay, NHDF cells; format: cell-based; conditions: 72 h, non-tumoral cells, read-out: Estimated IC50, NHDF
Experimental: (§1) LNCaP, PC-3, MCF-7, PNT1A, N27, and NHDF cells were obtained from the American Type Culture Collection (ATCC; Manassas, VA, USA) and were cultured in 75 cm^2 culture flasks at 37 °C in a humidified air incubator with 5% CO2. LNCaP, PC-3, PNT1A, and N27 cells, respectively, were cultured in RPMI 1640 medium (Sigma-Aldrich, Inc. St. Louis, MO, USA) with 10% fetal bovine serum (FBS; Sigma-Aldrich, Inc. St. Louis, MO, USA) and 1% of the antibiotic mixture of 10,000 U/mL penicillin G and […] streptomycin (Sp, Sigma-Aldrich, Inc. St. Louis, MO, USA). MCF-7 cells were cultured in DMEM medium (Sigma-Aldrich, Inc. St. Louis, MO, USA) supplemented with 10% fetal bovine serum (FBS; Sigma-Aldrich, Inc. St. Louis, MO, USA) and 1% antibiotic/antimycotic (10,000 U/mL penicillin G, […] streptomycin, and 25 µg/mL amphotericin B: Ab, Sigma-Aldrich, Inc. St. Louis, MO, USA). Finally, NHDF cells were cultured in RPMI 1640 medium supplemented with 10% FBS, 2 mM L-glutamine, 10 mM HEPES, 1 mM sodium pyruvate, and 1% of the antibiotic/antimycotic Ab, and these cells were used in passages 10th to 14th. For all cell types, the medium was renewed every 2 days until cells nearly reached the confluence state. When cells reach approximately 90–95% confluence, they are gently detached by trypsinization (trypsin-EDTA solution: 0.125 g/L of trypsin and 0.02 g/L of EDTA). Before each experiment, viable cells were counted in a Neubauer chamber by a trypan-blue exclusion assay and adequately diluted in the appropriate complete cell culture medium.
(§2) All tested compounds were dissolved in dimethyl sulfoxide (DMSO; Sigma-Aldrich, Inc. St. Louis, MO, USA) at a concentration of 10 mM and stored at 4 °C. From the mother-solutions, the diluted solutions of the compounds, in different concentrations, were prepared in the respective complete culture medium before each experiment.
(§3) After reaching a confluence state, cells were trypsinized and counted by the trypan-blue exclusion assay and then seeded with an initial density of 2 × 10^4 cells/mL in 96-well culture plates (Nunc, Apogent, Denmark) and left to adhere and grow for 48 h. Subsequently, the medium was removed, and the cells were treated with compound solutions (10 and 50 µM for preliminary studies and 0.01, 0.1, 1, 10, 50, and 100 µM for concentration-response studies) in complete culture medium for 72 h. 5-Fluorouracil (5-FU) was used as a positive control, and untreated cells were used as the negative control. Compounds leading to cell proliferation relative to control clearly below 50%, at 10 µM, or clearly below 25%, at 50 µM, in the screening studies were selected to concentration-response studies in tumoral cell lines. Each experiment was performed in quadruplicate and independently at least two times. The in vitro antiproliferative effects were evaluated by the MTT assay (Sigma-Aldrich, Inc. St. Louis, MO, USA). After the incubation period, the medium was removed, and 100 µL of phosphate buffer saline (PBS, NaCl 137 mM; KCl 2.7 mM; Na2HPO4 10 mM; and KH2PO4 1.8 mM in deionized water with a pH adjusted to 7.4) were used to wash the cells. Then, 100 µL of the MTT solution (5 mg/mL) was prepared in the appropriate serum-free medium and added to each well, followed by incubation for 4 h at 37 °C. Hereafter, the MTT containing medium was removed, and the formazan crystals were dissolved in DMSO. Then, the absorbance was measured at 570 nm using a xMarkTM microplate spectrophotometer from BIO-RAD Laboratories. Cell viability values were expressed as percentages relative to the negative control.

N27 cells [4] = assay: Neuroprotection against 6-OHDA-induced toxicity (MTT); format: cell-based, rat; conditions: 24 h; for protection against 6-OHDA-induced neurotoxicity: 10 and 50 µM together with 50 µM 6-OHDA
Experimental: The immortalized rat mesencephalic dopaminergic cell line (N27 cells; a kind gift from Dr. Yoon-Seong Kim, Burnett School of Biomedical Sciences, University of Central Florida) was grown in Roswell Park Memorial Institute (RPMI) 1640 medium (Sigma-Aldrich) containing 2 g/L sodium bicarbonate, 10% fetal bovine serum (FBS; Millipore), and 1 mL/L of penicillin/streptomycin (GIBCO) in a humidified atmosphere of 5% CO2 at 37 °C. Cells were plated at a density of 0.31 × 10^5 cells per cm^2 in 96-well culture plates. In the MTT assay, N27 cells were incubated in the presence of several compounds with 50 μM of 6-OHDA. To assess cell viability, MTT reduction was performed as previously described (Section 2.3) with some modifications. Briefly, after 24 h of cell treatments, 0.5 mg/mL of MTT was added to cells for 4 h at 37 °C. Then, the resultant precipitate was dissolved in 10% SDS and quantified at a wavelength of 570 nm.

[5] = test system: N27 (rat dopaminergic neuronal cells); assay: MTT cell proliferation assay, N27 cells; format: cell-based; conditions: 72 h, non-tumoral cells, read-out: Estimated IC50, N27
Experimental: as §1, §2, §3

[6] = test system: PNT1A (normal prostate cells); assay: MTT cell proliferation assay, PNT1A cells; format: cell-based; conditions: 72 h, non-tumoral cells, read-out: Estimated IC50, PNT1A
Experimental: as §1, §2, §3

[7] = test system: MCF-7 cells (estrogen-responsive breast cancer cells); assay: MTT cell proliferation assay, MCF-7 cells; format: cell-based; conditions: MTT, 72 h, tumoral cells; read-out: Estimated IC50, MCF-7
Experimental: as §1, §2, §3

[8] = test system: PC-3 cells (androgen-independent prostatic cancer); assay: MTT cell proliferation assay, PC-3 cells; format: cell-based; conditions: PC-3, 50 µM, 72 h
Experimental: as §1, §2, §3

[9] = test system: LNCaP cells (androgen-dependent prostatic cancer); assay: MTT cell proliferation assay, LNCaP cells; format: cell-based; conditions: 72 h
Experimental: as §1, §2, §3

[10] = test system: all cell lines (NHDF, PNT1A, N27, LNCaP, PC-3, MCF-7); assay: MTT preliminary screening, all cell lines taken together; format: cell-based; conditions: 50 µM, 72 h
Experimental: as §1, §2, §3

Row | Compound | IC50 [1] [µM] | effect on N27 cell viability (N27 cells [2]) | fold-increase in cell viability compared to 10 µM of the respective compound (N27 cells [2]) [fold] | fold-increase in cell viability compared to the control (N27 cells [2]) [fold] | IC50 [3] [µM] | protection against 6-OHDA-induced neurotoxicity (N27 cells [4]) | IC50 [5] [µM] | IC50 [6] [µM] | IC50 [7] [µM] | decrease on cell proliferation relative to the control [8] | effect on LNCaP cell proliferation ([9]; LNCaP, 10 µM) | decrease in LNCaP cell proliferation ([9]; LNCaP, 50 µM) | IC50 ([9]; MTT, tumoral cells, read-out: Estimated IC50, LNCaP) [µM] | fold-decrease in cell viability compared to 6-OHDA alone (N27 cells [4]; 50 µM together with 50 µM 6-OHDA) [fold] | relative cell proliferation [10] [%]
1 | CC12CCC3C(CC=C4CC(O)CCC43C)C1C/C(=C\c1ccc([N+](=O)[O-])cc1)C2=O (stereo not drawn) [Compound 4, (E)-16-(4-Nitrobenzylidene)-3-hydroxy-10,13-dimethyl-1,3,4,7,8,9,10,11,12,13,15,16-dodecahydro-2H-cyclopenta[α]phenanthren-17(14H)-one] | > 100 | – | – | – | – | – | – | – | – | – | – | – | – | – | –
2 | CC12CCC3C(CC=C4CC(O)CCC43C)C1C/C(=C\c1ccc(Cl)cc1Cl)C2=O (stereo not drawn) [Compound 9, (E)-16-(2,4-Dichlorobenzylidene)-3-hydroxy-10,13-dimethyl-1,3,4,7,8,9,10,11,12,13,15,16-dodecahydro-2H-cyclopenta[α]phenanthren-17(14H)-one] | > 100 | – | – | – | – | – | – | – | – | – | – | – | – | – | –
3 | CC12CCC3C(CC4OC45CC(O)CCC35C)C1CC(=Cc1ccc([N+](=O)[O-])cc1)C2=O (stereo not drawn) [Compound 17, (E)-16-(4-Nitrobenzylidene)-3-hydroxy-5α ,6α -epoxy-10,13-dimethyl-1,3,4,7,8,9,10,11,12,13,15,16-dodecahydro-2H-cyclopenta[α ]phenanthren-17(14H)-one] | – | did not affect cell viability | 1.59 | 1.53 | 32.3 | did not counteract; also recorded: no significant neuroprotection | > 100 | > 100 | 20.8 | – | – | – | – | – | –
4 | C[C@]12CC[C@H]3[C@@H](C[C@@H]4O[C@@]45C[C@@H](O)CC[C@]35C)[C@@H]1C/C(=C\c1ccco1)C2=O [Compound 20, (E)-16-(Furan-2-ylmethylene)-3-hydroxy-5α ,6α -epoxy-10,13-dimethyl-1,3,4,7,8,9,10,11,12,13,15,16-dodecahydro-2H-cyclopenta[α ]phenanthren-17(14H)-one] | – | did not affect cell viability | – | – | 50 | did not counteract; also recorded: no significant neuroprotection | 64.5 | 56.6 | – | higher than 75% | – | – | – | – | –
5 | CC12CCC3C(CC4OC45CC(O)CCC35C)C1CC(=Cc1ccc(Cl)o1)C2=O (stereo not drawn) [Compound 27, (E)-16-[(5-Chlorofuran-2-yl)methylene]-3-hydroxy-5α ,6α -epoxy-10,13-dimethyl-1,3,4,7,8,9,10,11,12,13,15,16-dodecahydro-2H-cyclopenta[α ]phenanthren-17(14H)-one] | – | did not affect cell viability | 1.41 | 1.25 | 18.4 | did not counteract; also recorded: no significant neuroprotection | 42.4 | 19.5 | 56.9 | – | no relevant effects | higher than 75% | 15.8 | 0.9 | ≤ 50
